Laboratory results published in the Kinase Knowledgebase extract (Sharma et al. 2016).
pIC50: −log10 of the molar value.

biological target: MAPK14 (UniProt Q16539); test: Inhibition of MAPK14 Kinase Activity
Sequence (Q16539 whole entry, looked up): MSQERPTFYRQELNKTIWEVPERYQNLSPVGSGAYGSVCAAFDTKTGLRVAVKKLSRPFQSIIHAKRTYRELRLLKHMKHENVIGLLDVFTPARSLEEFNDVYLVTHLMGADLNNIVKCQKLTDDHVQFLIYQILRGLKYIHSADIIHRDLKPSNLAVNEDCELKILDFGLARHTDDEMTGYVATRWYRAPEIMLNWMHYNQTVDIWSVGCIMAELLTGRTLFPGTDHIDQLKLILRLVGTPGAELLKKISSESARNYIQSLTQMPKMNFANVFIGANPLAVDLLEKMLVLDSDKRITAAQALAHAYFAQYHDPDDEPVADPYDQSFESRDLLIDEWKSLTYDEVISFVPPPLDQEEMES

Row | SMILES | pIC50
1 | CC(C)S(=O)(=O)n1c(N)nc2ccc(-c3nc(-c4cc(F)ccc4F)[nH]c3-c3ccccc3)cc21 | ≥ 5.30
2 | CC(C)S(=O)(=O)n1c(N)nc2ccc(-c3[nH]n(-c4ccc(C(F)(F)F)cc4)c(=O)c3-c3ccccc3)cc21 | ≥ 5.30
3 | CC(C)S(=O)(=O)n1c(N)nc2ccc(-c3nc(-c4cccs4)[nH]c3-c3cccc(C(F)(F)F)c3)cc21 | ≥ 5.30
4 | CC(C)S(=O)(=O)n1c(N)nc2ccc(-c3nc(-c4ccccc4Cl)[nH]c3-c3ccccc3)cc21 | ≥ 5.30
5 | Cc1nc(-c2ccc3nc(N)n(S(=O)(=O)C(C)C)c3c2)c(-c2ccc(F)cc2)[nH]1 | ≥ 5.30
6 | Nc1nc2ccc(-c3c(-c4ccccc4)ncn3C3CCCCC3)cc2s1 | ≥ 5.30
7 | CC(C)S(=O)(=O)n1c(N)nc2ccc(-c3nc(-c4ccccc4OC(F)(F)F)[nH]c3-c3ccccc3)cc21 | ≥ 5.30
8 | CC(C)S(=O)(=O)n1c(N)nc2ccc(-c3nc(-c4c(F)cccc4Cl)[nH]c3-c3ccccc3)cc21 | ≥ 5.30
9 | CC1=CC2=NC(c3ccccc3)C(c3ccc4nc(N)n(S(=O)(=O)C(C)C)c4c3)N2C=C1 (configuration not stated) | ≥ 5.30
10 | COc1ccc(C2N=C3C(C)=CC=CN3C2c2ccc3nc(N)n(S(=O)(=O)C(C)C)c3c2)cc1 (configuration not stated) | ≥ 5.30
11 | CC(C)S(=O)(=O)n1c(N)nc2ccc(-c3nc(CN4CCOCC4)[nH]c3-c3ccccc3)cc21 | ≥ 5.30
12 | CC(C)S(=O)(=O)n1c(N)nc2ccc(-c3c(-c4cccc(F)c4F)ncn3C)cc21 | ≥ 5.30
13 | CC(C)S(=O)(=O)n1c(N)nc2ccc(-c3nc(-c4ccc(N)cc4F)[nH]c3-c3ccccc3)cc21 | ≥ 5.30
14 | CC(C)S(=O)(=O)n1c(N)nc2ccc(-c3nc(-c4c(F)cccc4F)oc3-c3ccccc3)cc21 | ≥ 5.30
15 | Nc1nc2ccc(-c3nc(-c4c(F)cccc4F)[nH]c3-c3ccccc3)cc2[nH]1 | ≥ 5.30
16 | CC(C)S(=O)(=O)n1c(N)nc2ccc(-c3nc(COCc4ccccc4)[nH]c3-c3ccccc3)cc21 | ≥ 5.30
17 | CC(=O)Nc1ccc(-c2nc(-c3ccc4nc(N)n(S(=O)(=O)C(C)C)c4c3)c(-c3ccccc3)[nH]2)cc1 | ≥ 5.30
18 | CC(C)S(=O)(=O)n1c(N)nc2ccc(-c3nc(CC(C)(C)C)[nH]c3-c3ccc(F)cc3)cc21 | ≥ 5.30
19 | CC(C)S(=O)(=O)n1c(N)nc2ccc(-c3nc(C4CCCCC4)[nH]c3-c3ccc(F)cc3)cc21 | ≥ 5.30
20 | CC(C)S(=O)(=O)n1c(N)nc2ccc(-c3nc(CN(C)CCN(C)C)[nH]c3-c3ccccc3)cc21 | ≥ 5.30
21 | CC(C)S(=O)(=O)n1c(N)nc2ccc(-c3nc(-c4ccc([N+](=O)[O-])s4)[nH]c3-c3ccccc3)cc21 | ≥ 5.30

Row | SMILES | pIC50
22 | COc1ccc(Cn2c(CO)nc(-c3ccccc3)c2-c2ccc3nc(N)n(S(=O)(=O)C(C)C)c3c2)cc1 | ≥ 5.30
23 | CC(C)S(=O)(=O)n1c(N)nc2ccc(-c3nc[nH]c3-c3ccc(F)cc3F)cc21 | ≥ 5.30
24 | CC(C)S(=O)(=O)n1c(N)nc2ccc(-c3nc(-c4cccc(C(F)(F)F)c4)[nH]c3-c3ccccc3)cc21 | ≥ 5.30
25 | CC(C)S(=O)(=O)n1c(N)nc2ccc(-c3nc(-c4c(F)cccc4F)n(C)c3-c3ccccc3)cc21 | ≥ 5.30
26 | CC(C)S(=O)(=O)n1c(N)nc2ccc(-c3nc(-c4ccc(OCCN5CCCCC5)cc4)[nH]c3-c3ccccc3)cc21 | ≥ 5.30
27 | CC(C)S(=O)(=O)n1c(N)nc2ccc(-c3nc(C4CC4)[nH]c3-c3ccc(F)cc3)cc21 | ≥ 5.30
28 | CC(C)S(=O)(=O)n1c(N)nc2ccc(-c3c(-c4ccc(F)cc4F)ncn3C)cc21 | ≥ 5.30
29 | CC(C)S(=O)(=O)n1c(N)nc2ccc(-c3nc(-c4cccs4)n(C)c3-c3ccccc3)cc21 | ≥ 5.30
30 | CC(C)S(=O)(=O)n1c(N)nc2ccc(-c3nc(C4CCOCC4)[nH]c3-c3ccc(F)cc3)cc21 | ≥ 5.30
31 | CC(C)S(=O)(=O)n1c(N)nc2ccc(-c3nc(-c4cccs4)[nH]c3-c3ccc(F)cc3)cc21 | ≥ 5.30
32 | CC(C)S(=O)(=O)n1c(N)nc2ccc(C3C(c4ccccc4)N=C4C=CC(Cl)=CN43)cc21 (configuration not stated) | ≥ 5.30
33 | CC(C)CN1CCC(c2nc(-c3ccc4nc(N)n(S(=O)(=O)C(C)C)c4c3)c(-c3ccccc3)[nH]2)CC1 | ≥ 5.30
34 | Clc1nc2ccc(-c3c(-c4ccccc4)ncn3C3CCCCC3)cc2s1 | ≥ 5.30
35 | CC(C)S(=O)(=O)n1c(N)nc2ccc(-c3nc(C4CCN(Cc5nccn5C)CC4)[nH]c3-c3ccccc3)cc21 | ≥ 5.30
36 | CC(C)S(=O)(=O)n1c(N)nc2ccc(-c3nc(-c4cccnc4)[nH]c3-c3ccccc3)cc21 | ≥ 5.30
37 | CC(C)S(=O)(=O)n1c(N)nc2ccc(-c3nc(-c4cccs4)[nH]c3-c3ccccc3)cc21 | ≥ 5.30
38 | CCNc1ccc(-c2nc(-c3ccc4nc(N)n(S(=O)(=O)C(C)C)c4c3)c(-c3ccccc3)[nH]2)cc1 | ≥ 5.30
39 | CC(C)S(=O)(=O)n1c(N)nc2ccc(-c3nc(C(C)(C)C)[nH]c3-c3ccccc3)cc21 | ≥ 5.30
40 | CN(C)S(=O)(=O)n1c(N)nc2ccc(-c3nc(-c4c(F)cccc4F)[nH]c3-c3ccccc3)cc21 | ≥ 5.30
41 | Nc1nc2ccc(-c3nc[nH]c3-c3ccccc3)cc2[nH]1 | ≥ 5.30

Further lines, results first:

Row | pIC50 | SMILES
42 | ≥ 5.30 | CC(C)S(=O)(=O)n1c(N)nc2ccc(-c3c(-c4ccccc4)nc4n3CCC4)cc21
43 | ≥ 5.30 | CC(C)S(=O)(=O)n1c(N)nc2ccc(-c3c(-c4ccccc4)ncn3C3CC3)cc21
44 | ≥ 5.30 | CC(C)S(=O)(=O)n1c(N)nc2ccc(-c3c(-c4ccccc4)ncn3[C@H](CO)CC3CCCCC3)cc21
45 | ≥ 5.30 | CCOC(=O)N1CCC(n2cnc(-c3cccc(F)c3)c2-c2ccc3nc(N)n(S(=O)(=O)C(C)C)c3c2)CC1
46 | ≥ 5.30 | CC(C)S(=O)(=O)n1c(N)nc2ccc(-c3c(-c4ccccc4F)nc(N)n3C3CC3)cc21
47 | ≥ 5.30 | C#Cc1nc(-c2ccccc2)c(-c2ccc3nc(N)n(S(=O)(=O)C(C)C)c3c2)n1C1CCCCC1
48 | ≥ 5.30 | CC(C)S(=O)(=O)n1c(N)nc2ccc(-c3c(-c4ccccc4)ncn3Cc3cccc(F)c3)cc21
49 | ≥ 5.30 | CC(C)S(=O)(=O)n1c(N)nc2ccc(-c3c(-c4ccc(F)cc4)ncn3C3CCCC3)cc21
50 | ≥ 5.30 | CC(C)S(=O)(=O)n1c(N)nc2ccc(-c3c(-c4cccc(F)c4F)ncn3[C@H]3CC[C@H](O)CC3)cc21
51 | ≥ 5.30 | CC(C)S(=O)(=O)n1c(N)nc2ccc(-c3nn[nH]c3-c3ccccc3)cc21
52 | ≥ 5.30 | CCOC(=O)N1CCC(n2cnc(-c3ccccc3F)c2-c2ccc3nc(N)n(S(=O)(=O)C(C)C)c3c2)CC1
53 | ≥ 5.30 | CC(C)S(=O)(=O)n1c(N)nc2ccc(-c3c(-c4ccccc4)ncn3Cc3ccc(F)cc3F)cc21
54 | ≥ 5.30 | CC(C)S(=O)(=O)n1c(N)nc2ccc(-c3c(-c4ccccc4)ncn3CC3CC3)cc21
55 | ≥ 5.30 | CC(C)S(=O)(=O)n1c(N)nc2ccc(-c3c(-c4ccc(F)cc4)ncn3CC3CC3)cc21
56 | ≥ 5.30 | COCCn1cnc(-c2ccccc2)c1-c1ccc2nc(N)n(S(=O)(=O)C(C)C)c2c1
57 | ≥ 5.30 | Cc1nc(-c2ccccc2)c(-c2ccc3nc(N)n(S(=O)(=O)C(C)C)c3c2)s1
58 | ≥ 5.30 | CC(C)S(=O)(=O)n1c(N)nc2ccc(-c3nc(C4CCCCC4)[nH]c3-c3ccccc3)cc21
59 | ≥ 5.30 | CC(C)S(=O)(=O)n1c(N)nc2ccc(-c3c(-c4ccccc4F)nc(N=[N+]=[N-])n3C3CC3)cc21
60 | ≥ 5.30 | CC(C)S(=O)(=O)n1c(N)nc2ccc(-c3c(-c4ccccc4)ncn3C3CCN(C)CC3)cc21
61 | ≥ 5.30 | CC(C)S(=O)(=O)n1c(N)nc2ccc(-c3c(-c4ccccc4)ncn3CCO)cc21
62 | ≥ 5.30 | CC(C)S(=O)(=O)n1c(N)nc2ccc(-c3c(-c4ccc(F)cc4F)ncn3C3CC3)cc21
